Results reported in the NIST ThermoML archive (doi:10.1021/acs.jced.6b00577).
± gives the expanded uncertainty stated by the source.

Details: Liquid, Frequency=8 MHz, Pulse-echo method

CCCC [butane]
Details	speed of sound [m/s]
240 K, 80158 kPa	1641.4 ± 0.79
240 K, 90165 kPa	1680 ± 0.81
240 K, 100172 kPa	1716.9 ± 0.82
259.99 K, 12610 kPa	1208.1 ± 0.62
259.99 K, 80158 kPa	1569.8 ± 0.76
259.99 K, 90165 kPa	1610.4 ± 0.78
260 K, 251.45 kPa	1109.1 ± 0.58
260 K, 601.45 kPa	1112.2 ± 0.59
260 K, 1102.2 kPa	1116.6 ± 0.59
260 K, 2102.8 kPa	1125.3 ± 0.59
260 K, 2103.1 kPa	1125.3 ± 0.59
260 K, 3103.4 kPa	1133.8 ± 0.59
260 K, 3103.8 kPa	1133.8 ± 0.59
260 K, 4104.1 kPa	1142.1 ± 0.6
260 K, 4104.5 kPa	1142.2 ± 0.6
260 K, 5104.7 kPa	1150.3 ± 0.6
260 K, 5105.2 kPa	1150.4 ± 0.6
260 K, 6105.9 kPa	1158.5 ± 0.6
260 K, 7106.5 kPa	1166.4 ± 0.61
260 K, 8107.2 kPa	1174.3 ± 0.61
260 K, 9108 kPa	1182 ± 0.61
260 K, 10108 kPa	1189.6 ± 0.62
260 K, 15112 kPa	1226 ± 0.63
260 K, 17613 kPa	1243.4 ± 0.64
260 K, 20115 kPa	1260.3 ± 0.64
260 K, 25119 kPa	1292.5 ± 0.66
260 K, 30122 kPa	1323.2 ± 0.67
260 K, 35126 kPa	1352.3 ± 0.68
260 K, 40129 kPa	1380.2 ± 0.69
260 K, 45133 kPa	1406.9 ± 0.7
260 K, 50136 kPa	1432.6 ± 0.71
260 K, 60144 kPa	1481.3 ± 0.73
260 K, 70151 kPa	1526.8 ± 0.75
260 K, 100172 kPa	1649 ± 0.79
280 K, 250.96 kPa	999.47 ± 0.54
280 K, 601 kPa	1003.1 ± 0.54
280 K, 1101.7 kPa	1008.2 ± 0.55
280 K, 2102.4 kPa	1018.3 ± 0.55
280 K, 3103 kPa	1028.1 ± 0.55
280 K, 3103.1 kPa	1028.2 ± 0.55
280 K, 4103.6 kPa	1037.8 ± 0.56
280 K, 4103.9 kPa	1037.8 ± 0.56
280 K, 5104.1 kPa	1047.2 ± 0.56
280 K, 5104.6 kPa	1047.2 ± 0.56
280 K, 6105.4 kPa	1056.5 ± 0.56
280 K, 7106.1 kPa	1065.6 ± 0.57
280 K, 8106.8 kPa	1074.5 ± 0.57
280 K, 9107.5 kPa	1083.2 ± 0.57
280 K, 10108 kPa	1091.8 ± 0.58
280 K, 12610 kPa	1112.6 ± 0.59
280 K, 15112 kPa	1132.7 ± 0.59
280 K, 17613 kPa	1151.9 ± 0.6
280 K, 20115 kPa	1170.5 ± 0.61
280 K, 25118 kPa	1206 ± 0.62
280 K, 30122 kPa	1239.3 ± 0.64
280 K, 35125 kPa	1270.9 ± 0.65
280 K, 40128 kPa	1300.9 ± 0.66
280 K, 45132 kPa	1329.5 ± 0.67
280 K, 50135 kPa	1357 ± 0.68
280 K, 60142 kPa	1408.7 ± 0.7
280 K, 70149 kPa	1456.8 ± 0.72
280 K, 80159 kPa	1502 ± 0.74
280 K, 90166 kPa	1544.6 ± 0.75
280 K, 100173 kPa	1584.9 ± 0.77
299.99 K, 80158 kPa	1438.2 ± 0.71
299.99 K, 90165 kPa	1482.7 ± 0.73
299.99 K, 100172 kPa	1524.7 ± 0.75
300 K, 599.94 kPa	893.83 ± 0.5
300 K, 2102 kPa	911.89 ± 0.51
300 K, 2104.2 kPa	911.91 ± 0.51
300 K, 3102.8 kPa	923.46 ± 0.51
300 K, 3104.9 kPa	923.48 ± 0.51
300 K, 4103.6 kPa	934.71 ± 0.52
300 K, 4105.7 kPa	934.73 ± 0.52
300 K, 5104.4 kPa	945.67 ± 0.52
300 K, 5105.9 kPa	945.68 ± 0.52
300 K, 6106.5 kPa	956.35 ± 0.53
300 K, 7107.2 kPa	966.78 ± 0.53
300 K, 8107.8 kPa	976.95 ± 0.53
300 K, 9108.4 kPa	986.91 ± 0.54
300 K, 10109 kPa	996.68 ± 0.54
300 K, 12610 kPa	1020.2 ± 0.55
300 K, 15112 kPa	1042.6 ± 0.56
300 K, 17614 kPa	1064 ± 0.57
300 K, 20115 kPa	1084.5 ± 0.58
300 K, 25118 kPa	1123.3 ± 0.59
300 K, 30122 kPa	1159.6 ± 0.6
300 K, 35125 kPa	1193.6 ± 0.62
300 K, 40129 kPa	1225.8 ± 0.63
300 K, 45132 kPa	1256.4 ± 0.64
300 K, 50136 kPa	1285.6 ± 0.65
300 K, 60143 kPa	1340.3 ± 0.67
300 K, 70150 kPa	1390.9 ± 0.69
300.01 K, 1100.4 kPa	899.93 ± 0.5
320 K, 601.27 kPa	783.22 ± 0.46
